SMILES strings stand for the structures.

The target in one assay is human recombinant GPR65 (Homo sapiens, UniProt Q8IYL9). Briefly: Human GPR65 cAMP HTRF antagonist assay. The class given is cell-based.
Sequence of human recombinant GPR65 (Q8IYL9 whole entry): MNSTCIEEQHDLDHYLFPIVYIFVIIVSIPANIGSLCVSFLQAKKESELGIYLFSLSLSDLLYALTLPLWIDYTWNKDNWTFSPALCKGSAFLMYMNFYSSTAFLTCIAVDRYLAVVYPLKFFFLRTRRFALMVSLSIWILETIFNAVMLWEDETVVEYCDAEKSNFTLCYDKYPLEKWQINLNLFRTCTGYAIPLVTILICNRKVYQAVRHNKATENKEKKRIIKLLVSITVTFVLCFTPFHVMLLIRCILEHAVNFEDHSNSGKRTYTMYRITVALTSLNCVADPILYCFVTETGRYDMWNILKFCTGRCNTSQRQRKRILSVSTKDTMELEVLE
Settings: not given
From the text: The “Human GPR65 cyclic adenosine monophosphate (cAMP) Homogeneous Time Resolved Fluorescence (HTRF) antagonist assay”, or simply “cAMP assay”, as described below, can be used to measure the potency of GPR65 modulators, which is expressed as the concentration of compound required to reduce the increase in cAMP concentration upon GPR65 activation by 50% (i.e. an IC50).
Human GPR65 Cyclic Adenosine Monophosphate (cAMP) Homogeneous Time Resolved Fluorescence (HTRF) Antagonist Assay Procedure
IC50 data was obtained by the following procedure:
1321N1 human astrocytoma cells stably expressing human recombinant GPR65 (1321N1-hrGPR65 cells, EuroscreenFast) were cultured according to the vendor's instructions.
Compounds were tested for their ability to antagonise GPR65, through measuring the concentration of cytoplasmic cAMP following treatment of the cells at a pH of 7.2 to activate GPR65 signalling and addition of the compound to be tested. The extent to which the expected rise in cAMP concentration upon GPR65 activation was suppressed by the added compound is indicative of its potency. The assay was carried out according to EuroscreenFast assay methodology as follows.
On the day of the assay, test compounds were added to 384-well, low volume, white microtiter plates by acoustic dispensing. KRH buffer (5 mM KCl, 1.25 mM MgSO4, 124 mM NaCl, 25 mM HEPES, 13.3 mM Glucose, 1.25 mM KH2PO4 and 1.45 mM CaCl2) was adjusted to pH 6.5, pH 7.6 and pH 8.4 by adding NaOH. 1321N1-hGPR65 cells were rapidly thawed and diluted in KRH, pH 7.6 prior to centrifugation at 300×g for 5 min and resuspension in assay buffer (KRH, pH 7.6, supplemented with 1 mM 3-isobutyl-1-methylxanthine (IBMX) and 200 μM ethylenediaminetetraacetic acid (EDTA)). Cells were added to assay plates at a density of 2,000 cells per well in a volume of 5 μl. Assay plates were briefly centrifuged at 100×g and then incubated at room temperature for 30 min. Cells were stimulated by the addition of 5 μL KRH, pH 6.5, to achieve an assay pH of 7.2, while control wells received 5 μl KRH, pH 8.4 to achieve an assay pH of 7.9. Assay plates were briefly centrifuged at 100×g and then incubated at room temperature for 30 min.
Accumulation of cAMP was detected by cAMP HTRF kit (Cisbio). d2-labeled cAMP and cryptate-labeled anti-cAMP antibody in Lysis and Detection Buffer (Cisbio) were added to assay plates, and the plates were incubated at room temperature for 1 h. HTRF measurements were performed using a Pherastar FSX instrument. Acceptor and donor emission signals were measured at 665 nm and 620 nm, respectively, and HTRF ratios were calculated as signal665 nm/signal620nm×10^4. Data were normalised to high and low control values and fitted with 4-parameter logistic regression to determine hGPR65 IC50 values for the test compounds, which are shown in Table 1.
A general note: In TR-FRET formats the signal depends on donor and acceptor labels being close together.
Broadly, the IC50 is the concentration that gives 50% inhibition. Turning to `O=C(Nc1cncc(Cl)c1)N1C2CCC1c1ccnc(F)c1C2` (racemic) [Compound 9, (±)-N-(5-chloropyridin-3-yl)-1-fluoro-6,7,8,9-tetrahydro-5H-5,8-epiminocyclohepta-[c]pyridine-10-carboxamide], the IC50 was under 500 nM. For the compound `O=C(Nc1cc(Cl)c(Cl)cn1)N1C2CCC1c1c[nH]c(=O)c(F)c1C2` (racemic) [Compound 11, (±)-N-(4,5-dichloropyridin-2-yl)-4-fluoro-3-oxo-3,5,6,7,8,9-hexahydro-2H-6,9-epiminocyclohepta[c]pyridine-10-carboxamide], the 50% inhibitory concentration (IC50) was under 500 nM.

The assay is the same for the next values; noted with them: 1321N1-hrGPR65 cells, assay pH of 7.2, cAMP HTRF; read-out: hGPR65 IC50.
Regarding `O=C(Nc1cnc(C(F)(F)F)cn1)N1C2CCC1c1cncnc1C2` (racemic) [Compound 6, (±)-N-(5-(trifluoromethyl)pyrazin-2-yl)-6,7,8,9-tetrahydro-5H-5,8-epiminocyclohepta-[d]pyrimidine-10-carboxamide], the 50% inhibitory concentration (IC50) was over 5000 nM. `O=C(Nc1ccc(Oc2ccccc2)nc1)N1C2CCC1c1ccnc(F)c1C2` (racemic) [Compound 8, (±)-1-fluoro-N-(6-phenoxypyridin-3-yl)-6,7,8,9-tetrahydro-5H-5,8-epiminocyclohepta-[c]pyridine-10-carboxamide]: the IC50 was in the range of 500 to 5000 nM. With `O=C(Nc1cc(Cl)c(C(F)(F)F)cn1)N1C2CCC1c1cncnc1C2` (racemic) [Compound 28, (±)-N-(4-chloro-5-(trifluoromethyl)pyridin-2-yl)-6,7,8,9-tetrahydro-5H-5,8-epiminocyclo-hepta[d]pyrimidine-10-carboxamide], the half-inhibitory concentration (IC50) lay within 500 to 5000 nM.

For `O=C(Nc1cc(Cl)c(C(F)(F)F)cn1)N1[C@H]2CC[C@@H]1c1ccnc(F)c1C2` [Compound 1, (5R,8S)-N-(4-chloro-5-(trifluoromethyl)pyridin-2-yl)-1-fluoro-6,7,8,9-tetrahydro-5H-5,8-epiminocyclohepta[c]pyridine-10-carboxamide], the IC50 is under 500 nM. On the same count and under the same terms, the result for `O=C(Nc1cc(Cl)c(Cl)cn1)N1[C@H]2CC[C@@H]1c1ccnc(F)c1C2` [Compound 2, (5R,8S)-N-(4,5-dichloropyridin-2-yl)-1-fluoro-6,7,8,9-tetrahydro-5H-5,8-epiminocyclohepta[c]pyridine-10-carboxamide] reads under 500 nM.

For `O=C(Nc1ccc(Cl)c(Cl)n1)N1[C@H]2CC[C@@H]1c1ccnc(F)c1C2` [Compound 3, (5R,8S)-N-(5,6-dichloropyridin-2-yl)-1-fluoro-6,7,8,9-tetrahydro-5H-5,8-epiminocyclohepta[c]pyridine-10-carboxamide], the IC50 was in the range of 500 to 5000 nM. Same read-out and setting: under `O=C(Nc1cc(Cl)c(Cl)cn1)N1[C@H]2CC[C@@H]1c1c[nH]c(=O)cc1C2` [Compound 4, (6S,9R)-N-(4,5-dichloropyridin-2-yl)-3-oxo-3,5,6,7,8,9-hexahydro-2H-6,9-epiminocyclo-hepta[c]pyridine-10-carboxamide] stands under 500 nM; under `O=C(Nc1ccc(Cl)c(Cl)n1)N1[C@H]2CC[C@@H]1c1c[nH]c(=O)cc1C2` [Compound 5, (6S,9R)-N-(5,6-dichloropyridin-2-yl)-3-oxo-3,5,6,7,8,9-hexahydro-2H-6,9-epiminocyclo-hepta[c]pyridine-10-carboxamide], over 5000 nM. Same read-out and setting: the result for `O=C(Nc1ccc2nc(C(F)(F)F)ccc2c1)N1[C@H]2CC[C@@H]1c1c[nH]c(=O)cc1C2` [Compound 10, (6S,9R)-3-oxo-N-(2-(trifluoromethyl)quinolin-6-yl)-3,5,6,7,8,9-hexahydro-2H-6,9-epiminocyclohepta[c]pyridine-10-carboxamide] reads under 500 nM; that for `O=C(Nc1cnc(Cl)c(Cl)c1)N1[C@H]2CC[C@@H]1c1c[nH]c(=O)cc1C2` [Compound 13, (6S,9R)-N-(5,6-dichloropyridin-3-yl)-3-oxo-3,5,6,7,8,9-hexahydro-2H-6,9-epiminocyclo-hepta[c]pyridine-10-carboxamide], under 500 nM.
